Measured values published in ChEMBL document CHEMBL5154927, “Discovery of Novel Bicyclic Phenylselenyl-Containing Hybrids: An Orally Bioavailable, Potential, and Multiacting Class of Estrogen Receptor Modulators against Endocrine-Resistant Breast Cancer” (J Med Chem, 2022).
The source made the active and inactive calls. The rule behind the calls is not given here.

Key:
[1] = Selectivity index, ratio of IC50 for human MCF-10A cells to IC50 for human MCF-7 cells; assay type: toxicity; details: MCF-10A cells and MCF-7 cells, read-out: Ratio IC50
MDA-MB-231 = test: cells; details: Homo sapiens, MDA-MB-231, 72 h
Description: Antiproliferative activity against human MDA-MB-231 cells assessed as reduction in cell viability measured after 72 hrs by Cell Counting Kit-8 assay

MCF7 [2] = test: cells; details: Homo sapiens, MCF7, 72 h
Description: Antiproliferative activity against human MCF7 cells assessed as reduction in cell viability measured after 72 hrs by Cell Counting Kit-8 assay

[3] = Antiproliferative activity against human MCF-10A cells assessed as reduction in cell viability measured after 72 hrs by Cell Counting Kit-8 assay; assay type: toxicity, cell-based
[4] = Antiproliferative activity against tamoxifen-resistant human LCC2 cells assessed as reduction in cell viability measured after 72 hrs by Cell Counting Kit-8 assay; assay type: functional, cell-based; details: LCC2, 72 h
MCF7 [5] = test: Antitumor activity against human MCF7 cells xenografted in BALB/C mouse assessed as increase in tumor necrosis area at 20 mg/kg, po […]; assay type: functional, organism-based
MCF7 [6] = test: Antitumor activity against human MCF7 cells xenografted in BALB/C mouse assessed as decrease in cell proliferation at 20 mg/kg, po by Ki67 staining based immunohistochemical analysis; assay type: functional, organism-based
[7] = biological target: Estrogen receptor beta (Homo sapiens) (UniProt Q92731); test: Relative binding affinity to human ERbeta measured after 2 hrs by competitive fluorometric binding assay relative to estradiol
Estrogen receptor beta (Homo sapiens), sequence (Q92731 whole entry): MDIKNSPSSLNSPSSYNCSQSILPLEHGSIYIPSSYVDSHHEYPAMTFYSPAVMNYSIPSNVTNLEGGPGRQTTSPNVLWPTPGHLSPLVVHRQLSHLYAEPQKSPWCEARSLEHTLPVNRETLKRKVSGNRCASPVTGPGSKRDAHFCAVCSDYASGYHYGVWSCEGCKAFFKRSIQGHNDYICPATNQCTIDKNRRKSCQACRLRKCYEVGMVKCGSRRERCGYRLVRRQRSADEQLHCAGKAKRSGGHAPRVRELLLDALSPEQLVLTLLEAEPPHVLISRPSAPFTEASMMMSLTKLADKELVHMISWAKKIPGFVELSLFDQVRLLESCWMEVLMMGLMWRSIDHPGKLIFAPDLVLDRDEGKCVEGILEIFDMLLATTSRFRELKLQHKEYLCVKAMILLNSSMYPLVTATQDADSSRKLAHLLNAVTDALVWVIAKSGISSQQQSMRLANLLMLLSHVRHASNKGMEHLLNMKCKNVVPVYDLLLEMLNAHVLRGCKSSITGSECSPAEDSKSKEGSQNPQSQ

Homo sapiens = species on record: Homo sapiens; test: Selectivity ratio of relative binding affinity for human ERalpha to relative binding affinity for human ERbeta
[8] = biological target: T1, Hexokinase-1 (Homo sapiens) (UniProt P19367); test: Binding affinity to hexokinase-1 in human MCF7 cell lysate assessed as HK-1 pull down by western blotting based Co-immunoprecipitation assay; assay type: subcellular; details: filed as antagonist
T1 sequence (whole entry): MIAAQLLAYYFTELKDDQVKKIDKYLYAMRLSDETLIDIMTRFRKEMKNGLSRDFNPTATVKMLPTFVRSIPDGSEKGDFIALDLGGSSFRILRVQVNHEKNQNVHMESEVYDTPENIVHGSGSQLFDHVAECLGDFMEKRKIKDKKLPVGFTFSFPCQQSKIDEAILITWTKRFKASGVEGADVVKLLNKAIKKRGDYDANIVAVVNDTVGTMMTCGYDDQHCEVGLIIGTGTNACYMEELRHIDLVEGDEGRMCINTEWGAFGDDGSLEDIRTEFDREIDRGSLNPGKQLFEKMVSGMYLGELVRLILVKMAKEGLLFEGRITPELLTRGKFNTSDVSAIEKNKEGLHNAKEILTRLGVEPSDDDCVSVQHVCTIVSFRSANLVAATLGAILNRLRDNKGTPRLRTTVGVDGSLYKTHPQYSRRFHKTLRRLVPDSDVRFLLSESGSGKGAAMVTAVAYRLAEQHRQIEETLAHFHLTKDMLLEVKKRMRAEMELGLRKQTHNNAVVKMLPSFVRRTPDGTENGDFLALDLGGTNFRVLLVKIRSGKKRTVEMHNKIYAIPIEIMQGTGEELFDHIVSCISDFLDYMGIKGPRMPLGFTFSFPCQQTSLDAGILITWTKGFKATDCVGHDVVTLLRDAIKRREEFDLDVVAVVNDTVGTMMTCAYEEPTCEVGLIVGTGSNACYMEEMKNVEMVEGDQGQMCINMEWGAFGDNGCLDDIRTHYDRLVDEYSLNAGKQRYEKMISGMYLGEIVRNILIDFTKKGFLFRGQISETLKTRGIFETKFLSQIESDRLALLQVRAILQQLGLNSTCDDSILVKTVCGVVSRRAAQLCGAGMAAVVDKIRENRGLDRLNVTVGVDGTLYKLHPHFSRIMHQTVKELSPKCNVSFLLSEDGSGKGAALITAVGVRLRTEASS

MCF7 [9] = test: Induction of apoptosis in human MCF7 cells at 20 uM incubated for 48 hrs by annexin V-FITC staining based flow cytometry; assay type: functional, cell-based

| IC50 (MDA-MB-231) [µM] | IC50 (MCF7 [2]) [µM] | RBA [7] [%] | Ratio (Homo sapiens) | Activity [8] | Structure (SMILES) | selectivity ratio [1] | IC50 at 72 h [3] [µM] | IC50 [4] [µM] | Activity (MCF7 [5]) | Activity (MCF7 [6]) | Activity (MCF7 [9]) |
| --- | --- | --- | --- | --- | --- | --- | --- | --- | --- | --- | --- |
| 12.6 | 0.12 | – | – | – | Cc1cccc(OS(=O)(=O)C2CC3OC2C(c2ccc([Se]c4ccccc4)cc2)=C3c2ccc(O)cc2)c1 (centres undefined) | 255 | 30.6 | 8.42 | – | – | – |
| 41.9 | 0.18 | – | – | – | O=S(=O)(Oc1cccc(Cl)c1)C1CC2OC1C(c1ccc([Se]c3ccccc3)cc1)=C2c1ccc(O)cc1 (centres undefined) | 97.8 | 17.6 | > 31 | – | – | – |
| 19.2 | 1.36 | – | – | – | O=S(=O)(Oc1cccc(Br)c1)C1CC2OC1C(c1ccc([Se]c3ccccc3)cc1)=C2c1ccc(O)cc1 (centres undefined) | 12.7 | 17.3 | > 31 | – | – | – |
| 16.8 | 0.54 | – | – | – | O=S(=O)(Oc1cccc(C(F)(F)F)c1)C1CC2OC1C(c1ccc([Se]c3ccccc3)cc1)=C2c1ccc(O)cc1 (centres undefined) | 75.9 | 41 | 8.76 | – | – | – |
| 7.13 | 0.07 | – | – | – | O=S(=O)(Oc1cccc(O)c1)C1CC2OC1C(c1ccc(O)cc1)=C2c1ccc([Se]c2ccccc2)cc1 (centres undefined) | 106 | 7.41 | 2.88 | – | – | – |
| 31.6 | 0.8 | – | – | – | O=S(=O)(Oc1ccc([Se]c2ccccc2)cc1)C1CC2OC1C(c1ccc(O)cc1)=C2c1ccc(O)cc1 (centres undefined) | > 75 | > 60 | 20.5 | – | – | – |
| 32.3 | 14.6 | – | – | – | O=S(=O)(Oc1ccccc1)C1CC2OC1C(c1ccc(O)cc1)=C2c1ccc(O)cc1 (centres undefined) | > 4.11 | > 60 | > 31 | – | – | Active |
| 18.3 | 0.31 | – | – | – | O=S(=O)(Oc1ccc(Br)cc1)C1CC2OC1C(c1ccc([Se]c3ccccc3)cc1)=C2c1ccc(O)cc1 (centres undefined) | 90.8 | 28.2 | 25 | – | – | – |
| 25.6 | 1.71 | – | – | – | O=S(=O)(Oc1cccc([Se]c2ccccc2)c1)C1CC2OC1C(c1ccc(O)cc1)=C2c1ccc(O)cc1 (centres undefined) | 29.4 | 50.3 | > 31 | – | – | – |
| 8.49 | 0.41 | – | – | – | Cc1ccc(OS(=O)(=O)C2CC3OC2C(c2ccc([Se]c4ccccc4)cc2)=C3c2ccc(O)cc2)cc1 (centres undefined) | 45.1 | 18.5 | 6.82 | – | – | – |
| 12.2 | 1.96 | – | – | – | O=S(=O)(Oc1ccc(O)cc1)C1CC2OC1C(c1ccc(O)cc1)=C2c1ccc([Se]c2ccccc2)cc1 (centres undefined) | 8.54 | 16.7 | > 31 | – | – | – |
| > 60 | 0.16 | – | – | – | O=S(=O)(Oc1ccccc1)C1CC2OC1C(c1ccc(O)cc1)=C2c1ccc([Se]c2ccccc2)cc1 (centres undefined) | > 375 | > 60 | – | – | – | – |
| 11 | 0.14 | – | – | – | O=S(=O)(Oc1ccc(Cl)cc1)C1CC2OC1C(c1ccc([Se]c3ccccc3)cc1)=C2c1ccc(O)cc1 (centres undefined) | 186 | 26.1 | 6.88 | – | – | – |
| 10.5 | 0.66 | – | – | – | COc1cccc(OS(=O)(=O)C2CC3OC2C(c2ccc(O)cc2)=C3c2ccc([Se]c3ccccc3)cc2)c1 (centres undefined) | 27.1 | 17.9 | 4.8 | – | – | – |
| 11 | 0.37 | – | – | – | O=S(=O)(Oc1ccc(Cl)cc1)C1CC2OC1C(c1ccc(O)cc1)=C2c1ccc([Se]c2ccccc2)cc1 (centres undefined) | 86.4 | 32 | 6.64 | – | – | – |

Continued, molecule first:

| Structure (SMILES) | IC50 (MDA-MB-231) [µM] | IC50 (MCF7 [2]) [µM] | RBA [7] [%] | Ratio (Homo sapiens) | Activity [8] | selectivity ratio [1] | IC50 at 72 h [3] [µM] | IC50 [4] [µM] | Activity (MCF7 [5]) | Activity (MCF7 [6]) | Activity (MCF7 [9]) |
| --- | --- | --- | --- | --- | --- | --- | --- | --- | --- | --- | --- |
| Cc1ccc(OS(=O)(=O)C2CC3OC2C(c2ccc(O)cc2)=C3c2ccc([Se]c3ccccc3)cc2)cc1 (centres undefined) | 8.05 | 3.98 | – | – | – | 4.6 | 18.3 | 6.08 | – | – | – |
| COc1ccc(OS(=O)(=O)C2CC3OC2C(c2ccc(O)cc2)=C3c2ccc([Se]c3ccccc3)cc2)cc1 (centres undefined) | > 60 | 7.46 | – | – | – | > 8.04 | > 60 | – | – | – | – |
| COc1ccc(OS(=O)(=O)C2CC3OC2C(c2ccc([Se]c4ccccc4)cc2)=C3c2ccc(O)cc2)cc1 (centres undefined) | 9.71 | 0.21 | – | – | – | 138 | 29.1 | 5.92 | – | – | – |
| CC/C(=C(\c1ccccc1)c1ccc(OCCN(C)C)cc1)c1ccccc1 | – | – | – | – | – | – | – | – | Active | Active | – |
| O=S(=O)(Oc1ccc(C(F)(F)F)cc1)C1CC2OC1C(c1ccc(O)cc1)=C2c1ccc([Se]c2ccccc2)cc1 (centres undefined) | 22 | 0.15 | – | – | – | 94.3 | 14.1 | > 31 | – | – | – |
| O=S(=O)(Oc1ccc(Br)cc1)C1CC2OC1C(c1ccc(O)cc1)=C2c1ccc([Se]c2ccccc2)cc1 (centres undefined) | 17.4 | 0.55 | – | – | – | 75.6 | 43.2 | > 31 | – | – | – |
| O=C(CCC[C@@H]1SC[C@@H]2NC(=O)N[C@@H]21)Nc1cccc2c(OS(=O)(=O)C3CC4OC3C(c3ccc(O)cc3)=C4c3ccc(O)cc3)cccc12 (some centres undefined) | – | – | 0.1 | 3.4 | Active | – | – | – | – | – | – |
| O=S(=O)(Oc1cccc2ccccc12)C1CC2OC1C(c1ccc(O)cc1)=C2c1ccc([Se]c2ccccc2)cc1 (centres undefined) | 45.5 | 1.13 | – | – | – | > 53.1 | > 60 | – | – | – | – |
| CC/C(=C(\c1ccc(O)cc1)c1ccc(OCCN(C)C)cc1)c1ccccc1 [AFIMOXIFENE] | 18.4 | – | – | – | – | – | – | 22.2 | – | – | – |
| O=S(=O)(Oc1ccc(C(F)(F)F)cc1)C1CC2OC1C(c1ccc([Se]c3ccccc3)cc1)=C2c1ccc(O)cc1 (centres undefined) | 27.5 | 0.45 | – | – | – | 41.2 | 18.5 | – | – | – | – |
